Assays:
[1] = test system: CCRF-CEM; assay: Cytotoxicity against human CCRF-CEM cells by SRB assay; format: functional
[2] = Cytotoxicity against human HL60(TB) cells by SRB assay; format: functional, HL-60(TB); conditions: HL-60
[3] = test system: K562; assay: Cytotoxicity against human K562 cells by SRB assay; format: functional
[4] = test system: MOLT-4; assay: Cytotoxicity against human MOLT4 cells by SRB assay; format: functional
[5] = test system: RPMI-8226; assay: Cytotoxicity against human RPMI8226 cells by SRB assay; format: functional
[6] = test system: SR; assay: Cytotoxicity against human SR cells by SRB assay; format: functional
[7] = test system: A549; assay: Cytotoxicity against human A549 cells by SRB assay; format: functional
[8] = test system: EKVX; assay: Cytotoxicity against human EKVX cells by SRB assay; format: functional
[9] = test system: HOP-62; assay: Cytotoxicity against human HOP62 cells by SRB assay; format: functional
[10] = test system: HOP-92; assay: Cytotoxicity against human HOP92 cells by SRB assay; format: functional
[11] = test system: NCI-H226; assay: Cytotoxicity against human NCI-H226 cells by SRB assay; format: functional
[12] = test system: NCI-H23; assay: Cytotoxicity against human NCI-H23 cells by SRB assay; format: functional
[13] = test system: NCI-H322M; assay: Cytotoxicity against human NCI-H322M cells by SRB assay; format: functional
[14] = test system: NCI-H460; assay: Cytotoxicity against human NCI-H460 cells by SRB assay; format: functional
[15] = test system: NCI-H522; assay: Cytotoxicity against human NCI-H522 cells by SRB assay; format: functional
[16] = test system: COLO 205; assay: Cytotoxicity against human COLO205 cells by SRB assay; format: functional
[17] = test system: HCC 2998; assay: Cytotoxicity against human HCC2998 cells by SRB assay; format: functional
[18] = test system: HCT-116; assay: Cytotoxicity against human HCT116 cells by SRB assay; format: functional
[19] = test system: HCT-15; assay: Cytotoxicity against human HCT15 cells by SRB assay; format: functional
[20] = test system: HT-29; assay: Cytotoxicity against human HT29 cells by SRB assay; format: functional
[21] = test system: KM12; assay: Cytotoxicity against human KM12 cells by SRB assay; format: functional
[22] = test system: SW-620; assay: Cytotoxicity against human SW620 cells by SRB assay; format: functional
[23] = test system: SF-268; assay: Cytotoxicity against human SF268 cells by SRB assay; format: functional
[24] = test system: SF-295; assay: Cytotoxicity against human SF295 cells by SRB assay; format: functional
[25] = test system: SNB-19; assay: Cytotoxicity against human SNB19 cells by SRB assay; format: functional
[26] = test system: SNB-75; assay: Cytotoxicity against human SNB75 cells by SRB assay; format: functional
[27] = test system: U-251; assay: Cytotoxicity against human U251 cells by SRB assay; format: functional
[28] = test system: LOX IMVI; assay: Cytotoxicity against human LOXIMVI cells by SRB assay; format: functional
[29] = test system: Malme-3M; assay: Cytotoxicity against human MALME-3M cells by SRB assay; format: functional
[30] = test system: M14; assay: Cytotoxicity against human M14 cells by SRB assay; format: functional
[31] = test system: SK-MEL-2; assay: Cytotoxicity against human SK-MEL-2 cells by SRB assay; format: functional
[32] = test system: SK-MEL-28; assay: Cytotoxicity against human SK-MEL-28 cells by SRB assay; format: functional
[33] = test system: SK-MEL-5; assay: Cytotoxicity against human SK-MEL-5 cells by SRB assay; format: functional
[34] = test system: UACC-257; assay: Cytotoxicity against human UACC257 cells by SRB assay; format: functional
[35] = test system: UACC-62; assay: Cytotoxicity against human UACC62 cells by SRB assay; format: functional
[36] = test system: IGROV-1; assay: Cytotoxicity against human IGROV1 cells by SRB assay; format: functional
[37] = test system: OVCAR-3; assay: Cytotoxicity against human OVCAR-3 cells by SRB assay; format: functional
[38] = test system: OVCAR-4; assay: Cytotoxicity against human OVCAR4 cells by SRB assay; format: functional
[39] = test system: OVCAR-5; assay: Cytotoxicity against human OVCAR5 cells by SRB assay; format: functional
[40] = test system: OVCAR-8; assay: Cytotoxicity against human OVCAR8 cells by SRB assay; format: functional
[41] = test system: SK-OV-3; assay: Cytotoxicity against human SKOV3 cells by SRB assay; format: functional
[42] = Cytotoxicity against human 786-O cells by SRB assay; format: functional; conditions: 786-0
[43] = test system: A498; assay: Cytotoxicity against human A498 cells by SRB assay; format: functional
[44] = test system: ACHN; assay: Cytotoxicity against human ACHN cells by SRB assay; format: functional
[45] = test system: CAKI-1; assay: Cytotoxicity against human Caki1 cells by SRB assay; format: functional
[46] = test system: RXF 393; assay: Cytotoxicity against human RXF393 cells by SRB assay; format: functional
[47] = test system: SN12C; assay: Cytotoxicity against human SN12C cells by SRB assay; format: functional
[48] = test system: UO-31; assay: Cytotoxicity against human UO31 cells by SRB assay; format: functional
[49] = test system: PC-3; assay: Cytotoxicity against human PC3 cells by SRB assay; format: functional
[50] = test system: DU-145; assay: Cytotoxicity against human DU145 cells by SRB assay; format: functional
[51] = test system: MCF7; assay: Cytotoxicity against human MCF7 cells by SRB assay; format: functional
[52] = Cytotoxicity against human MCF7/ADR cells by SRB assay; format: functional; conditions: NCI/ADR-RES
[53] = test system: MDA-MB-231; assay: Cytotoxicity against human MDA-MB-231 cells by SRB assay; format: functional
[54] = Cytotoxicity against human Hs 578T cells by SRB assay; format: functional
[55] = test system: MDA-MB-435; assay: Cytotoxicity against human MDA-MB-435 cells by SRB assay; format: functional
[56] = test system: MDA-N; assay: Cytotoxicity against human MDA-N cells by SRB assay; format: functional
[57] = test system: BT-549; assay: Cytotoxicity against human BT549 cells by SRB assay; format: functional
[58] = test system: T47D; assay: Cytotoxicity against human T47D cells by SRB assay; format: functional
[59] = test system: Leukemia cell; assay: Cytotoxicity against human Leukemia cells by SRB assay; format: functional
[60] = test system: NSCLC; assay: Cytotoxicity against human NSCLC cells by SRB assay; format: functional
[61] = Cytotoxicity against human Colon cancer cells by SRB assay; format: functional; conditions: Cancer cell lines
[62] = Cytotoxicity against human CNS cancer cells by SRB assay; format: functional; conditions: Cancer cell lines
[63] = Cytotoxicity against human melanoma cells by SRB assay; format: functional; conditions: Melanoma cell
[64] = Cytotoxicity against human ovarian cancer cells by SRB assay; format: functional; conditions: Cancer cell lines
[65] = Cytotoxicity against human prostate cancer cells by SRB assay; format: functional; conditions: Cancer cell lines
[66] = Cytotoxicity against human breast cancer cells by SRB assay; format: functional; conditions: Cancer cell lines
[67] = Cytotoxicity against human renal cancer cells by SRB assay; format: functional; conditions: Cancer cell lines

In the case of COC(C)(C)[C@@H](O)[C@H](O)C[C@H](C)C1=C2CC[C@@H]3[C@@]4(C)CC[C@@H](OC(C)=O)C(C)(C)[C@@H]4C[C@@H](O[C@@H]4O[C@H](COC(C)=O)[C@@H](O)[C@H](O)[C@H]4O)[C@@]3(C)[C@]2(C)CC1, the GI50 [1] is reported as 5.37 µM, the GI50 [2] is reported as 3.63 µM and the GI50 [3] is reported as 6.03 µM. For the same molecule, the GI50 [4] was 5.13 µM, the GI50 [5] was 4.17 µM and the GI50 [6] was 3.09 µM. It also gave a GI50 [7] of 7.76 µM, a GI50 [8] of 12.9 µM and a GI50 [9] of 14.5 µM. For the same molecule, the GI50 [10] was 12.9 µM, the GI50 [11] was 13.2 µM and the GI50 [12] was 14.5 µM. For the same molecule, the GI50 [13] was 12.9 µM, the GI50 [14] was 9.12 µM and the GI50 [15] was 12.3 µM. The GI50 [16] was 10.7 µM, the TGI [16] was 22.8 µM and the GI50 [17] was 3.98 µM. The TGI [17] was 13.4 µM, the GI50 [18] was 6.03 µM and the TGI [18] was 19.2 µM. The GI50 [19] was 11 µM, the TGI [19] was 23.8 µM and the GI50 [20] was 5.13 µM. For the same molecule, the TGI [20] was 16.9 µM, the GI50 [21] was 3.55 µM and the TGI [21] was 18.9 µM. For the same molecule, the GI50 [22] was 15.8 µM, the TGI [22] was 30.1 µM and the GI50 [23] was 10.2 µM. For the same molecule, the GI50 [24] was 11.5 µM, the GI50 [25] was 12.3 µM and the GI50 [26] was 3.89 µM. For the same molecule, the GI50 [27] was 5.37 µM, the GI50 [28] was 6.31 µM and the GI50 [29] was 15.1 µM. For the same molecule, the GI50 [30] was 12.3 µM, the GI50 [31] was 13.2 µM and the GI50 [32] was 11.7 µM. The GI50 [33] was 14.5 µM, the GI50 [34] was 12.6 µM and the GI50 [35] was 8.71 µM. It also gave a GI50 [36] of 13.2 µM, a GI50 [37] of 7.41 µM and a GI50 [38] of 10.7 µM. It also gave a GI50 [39] of 14.8 µM, a GI50 [40] of 12.9 µM and a GI50 [41] of 15.1 µM. The GI50 [42] was 14.5 µM, the GI50 [43] was 14.1 µM and the GI50 [44] was 10.5 µM. It also gave a GI50 [45] of 4.07 µM, a GI50 [46] of 6.92 µM and a GI50 [47] of 13.5 µM. It also gave a GI50 [48] of 13.5 µM, a GI50 [49] of 5.62 µM and a GI50 [50] of 15.1 µM. It also gave a GI50 [51] of 2.63 µM, a GI50 [52] of 15.1 µM and a GI50 [53] of 11.5 µM. It also gave a GI50 [54] of 11.7 µM, a GI50 [55] of 12.3 µM and a GI50 [56] of 11.7 µM. It also gave a GI50 [57] of 15.1 µM, a GI50 [58] of 12.6 µM and a TGI [59] of 20.9 µM. For the same molecule, the TGI [60] was 25.6 µM, the TGI [61] was 20.7 µM and the TGI [62] was 23.8 µM. It also gave a TGI [63] of 29.9 µM, a TGI [64] of 25.6 µM and a TGI [65] of 23.5 µM. It also gave a TGI [66] of 24.8 µM and a TGI [67] of 23.6 µM.
